Blank lines part the entries; values can stand above or below the molecule they belong to.
Tests used:
[1] = system: CFBE cells expressing F508del-CFTR; assay: Cellular toxicity in CFBE cells during dose-response WB assay; assay type: cell-based, human; conditions: concentrations higher than 1 μM
GRK2 [2] = molecular target: T1, GRK2 (Homo sapiens, UniProt P25098); conditions: GRK5 over GRK2; cited from earlier work
T1 sequence (P25098 1-689): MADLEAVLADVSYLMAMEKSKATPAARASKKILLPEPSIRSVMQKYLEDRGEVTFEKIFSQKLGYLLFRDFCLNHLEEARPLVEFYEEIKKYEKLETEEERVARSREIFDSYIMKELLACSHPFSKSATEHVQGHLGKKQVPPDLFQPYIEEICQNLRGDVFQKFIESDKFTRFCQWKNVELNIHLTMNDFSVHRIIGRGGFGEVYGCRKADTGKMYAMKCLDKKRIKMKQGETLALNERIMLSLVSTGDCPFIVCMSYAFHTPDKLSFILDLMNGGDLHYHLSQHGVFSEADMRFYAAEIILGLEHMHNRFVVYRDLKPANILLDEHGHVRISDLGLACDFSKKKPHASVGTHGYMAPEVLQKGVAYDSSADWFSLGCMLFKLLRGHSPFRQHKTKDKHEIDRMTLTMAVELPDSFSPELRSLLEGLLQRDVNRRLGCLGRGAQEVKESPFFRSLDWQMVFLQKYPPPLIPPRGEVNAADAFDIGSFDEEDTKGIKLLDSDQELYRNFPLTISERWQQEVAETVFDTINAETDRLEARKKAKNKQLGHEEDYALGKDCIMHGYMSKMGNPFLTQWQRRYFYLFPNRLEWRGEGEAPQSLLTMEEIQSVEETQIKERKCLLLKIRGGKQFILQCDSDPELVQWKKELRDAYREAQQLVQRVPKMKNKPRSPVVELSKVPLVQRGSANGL

GRK5 = conditions: covalent binding; cited from earlier work
F508del-CFTR [3] = molecular target: T2, F508del-CFTR (Homo sapiens, UniProt P13569, DEL508-508); assay: Halide-sensitive YFP fluorescence quenching in CFBE cells expressing F508del-CFTR; assay type: cell-based; conditions: for additivity to CFTR correctors, HS-YFP quenching rate (F508del-CFTR functional rescue): 1 μM with VX-661 (5 μM), VX-445 (3 μM) or VX-661+VX-445, n=4
T2 construct: expressed in transfected cells; host or cells: CFBE41o- cells constitutively (stably) expressing F508del-CFTR
Method: CFBE41o- cells constitutively co-expressing the HS-yellow fluorescent protein (HS-YFP) YFP-H148Q/I152L as well as wt- or F508del-CFTR (described in (Sondo et al., 2011)) were a kind gift from Dr Nicoletta Pedemonte (IRCCS Istituto G. Gaslini, Genoa, Italy). These cells were cultured in Minimum Essential Medium (MEM) supplemented with 10% FBS, 2 mM L-glutamine, puromycin 2 μg/ml and G418 […] (Sigma, #A1720) at 37° C. in 5% CO2.
This assay was used to assess whether the enhanced F508del-CFTR traffic recorded when the reporter cell line was transfected with confirmed hit siRNAs also corresponded to enhanced F508del-CFTR ionic transport function. As in the microscopy-based screens, a 72 h siRNA transfection time was selected. The assay followed a previously reported protocol (Sondo et al., 2011). CFBE cells co-expressing HS-YFP and wt- or F508del-CFTR were grown to confluency (37° C., 5% CO2) and split to 50% confluency. On the following day, the experiment was initiated by seeding cells onto siRNA-coated 96 well plates using a peristaltic pump (ThermoFisher Multidrop™ Combi). Each well was seeded with 10,000 cells. […] After the stimulation period, each plate was transferred to a fluorescence plate reader equipped with fast reagent injectors (Tecan Infinite F200 Pro) and excitation (BP 475-495 nm) and emission ([…]) filters suitable for YFP fluorescence. Each assay consisted of a continuous 16 s fluorescence reading with 2 s before and 14 s after injection of 160 μl of a PBS where Cl^− had been replaced by I^− (final I^− concentration in the well: 100 mM). The pH of all PBS-containing solutions was rigorously set at pH 7.4 immediately before use to avoid artifacts in the fluorescence reading. The resulting kinetics was background subtracted and normalized to the pre-injection fluorescence value. To determine the fluorescence quenching rate associated with I^− influx, the final 14 s of the kinetics in each well were fitted with a single decay exponential curve and the derivative at the injection time (i.e. the quenching rate) was extracted from the curve parameters. […]

F508del-CFTR [4] = molecular target: T2, F508del-CFTR; assay: Western blot of F508del-CFTR processing (bands B and C) in CFBE cells; assay type: cell-based; conditions: for F508del-CFTR band C rescue: CFBE cells stably expressing F508del-CFTR, vs DMSO, n=3; for additivity to CFTR correctors, bands C and B: 1 μM with VX-661 (5 μM), VX-445 (3 μM) or VX-661+VX-445, n=4; for CFTR processing [C/(B+C)]: dose-response 0-1 μM, proportional increase in band B
GRK2 [5] = conditions: cited from earlier work
PKA = conditions: statement in words; cited from earlier work
GRK1 = molecular target: T3, GRK1 (Bos taurus, UniProt P28327); conditions: cited from earlier work
T3 sequence (P28327 1-561): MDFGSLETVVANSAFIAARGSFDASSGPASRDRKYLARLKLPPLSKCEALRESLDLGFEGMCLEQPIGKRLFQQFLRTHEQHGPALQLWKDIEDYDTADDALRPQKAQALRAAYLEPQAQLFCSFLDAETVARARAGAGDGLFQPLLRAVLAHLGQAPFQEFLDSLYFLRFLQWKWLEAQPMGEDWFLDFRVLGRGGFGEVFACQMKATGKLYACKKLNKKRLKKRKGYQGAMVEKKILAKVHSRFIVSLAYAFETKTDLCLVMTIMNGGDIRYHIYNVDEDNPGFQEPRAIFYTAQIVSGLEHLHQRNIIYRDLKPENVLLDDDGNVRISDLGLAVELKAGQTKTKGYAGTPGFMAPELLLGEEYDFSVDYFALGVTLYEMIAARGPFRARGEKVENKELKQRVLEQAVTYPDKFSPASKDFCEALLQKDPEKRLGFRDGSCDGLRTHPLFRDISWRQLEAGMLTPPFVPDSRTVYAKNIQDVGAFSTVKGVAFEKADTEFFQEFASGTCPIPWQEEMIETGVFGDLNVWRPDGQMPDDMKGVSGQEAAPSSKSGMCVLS

[6] = listed as (R,Z)-3-((4-(2-Bromoacetamido)-3,5-dimethyl-1H-pyrrol-2-yl)-methylene)-2-oxo-N-

T2 sequence (P13569 with tags, fused parts or gaps DEL508-508): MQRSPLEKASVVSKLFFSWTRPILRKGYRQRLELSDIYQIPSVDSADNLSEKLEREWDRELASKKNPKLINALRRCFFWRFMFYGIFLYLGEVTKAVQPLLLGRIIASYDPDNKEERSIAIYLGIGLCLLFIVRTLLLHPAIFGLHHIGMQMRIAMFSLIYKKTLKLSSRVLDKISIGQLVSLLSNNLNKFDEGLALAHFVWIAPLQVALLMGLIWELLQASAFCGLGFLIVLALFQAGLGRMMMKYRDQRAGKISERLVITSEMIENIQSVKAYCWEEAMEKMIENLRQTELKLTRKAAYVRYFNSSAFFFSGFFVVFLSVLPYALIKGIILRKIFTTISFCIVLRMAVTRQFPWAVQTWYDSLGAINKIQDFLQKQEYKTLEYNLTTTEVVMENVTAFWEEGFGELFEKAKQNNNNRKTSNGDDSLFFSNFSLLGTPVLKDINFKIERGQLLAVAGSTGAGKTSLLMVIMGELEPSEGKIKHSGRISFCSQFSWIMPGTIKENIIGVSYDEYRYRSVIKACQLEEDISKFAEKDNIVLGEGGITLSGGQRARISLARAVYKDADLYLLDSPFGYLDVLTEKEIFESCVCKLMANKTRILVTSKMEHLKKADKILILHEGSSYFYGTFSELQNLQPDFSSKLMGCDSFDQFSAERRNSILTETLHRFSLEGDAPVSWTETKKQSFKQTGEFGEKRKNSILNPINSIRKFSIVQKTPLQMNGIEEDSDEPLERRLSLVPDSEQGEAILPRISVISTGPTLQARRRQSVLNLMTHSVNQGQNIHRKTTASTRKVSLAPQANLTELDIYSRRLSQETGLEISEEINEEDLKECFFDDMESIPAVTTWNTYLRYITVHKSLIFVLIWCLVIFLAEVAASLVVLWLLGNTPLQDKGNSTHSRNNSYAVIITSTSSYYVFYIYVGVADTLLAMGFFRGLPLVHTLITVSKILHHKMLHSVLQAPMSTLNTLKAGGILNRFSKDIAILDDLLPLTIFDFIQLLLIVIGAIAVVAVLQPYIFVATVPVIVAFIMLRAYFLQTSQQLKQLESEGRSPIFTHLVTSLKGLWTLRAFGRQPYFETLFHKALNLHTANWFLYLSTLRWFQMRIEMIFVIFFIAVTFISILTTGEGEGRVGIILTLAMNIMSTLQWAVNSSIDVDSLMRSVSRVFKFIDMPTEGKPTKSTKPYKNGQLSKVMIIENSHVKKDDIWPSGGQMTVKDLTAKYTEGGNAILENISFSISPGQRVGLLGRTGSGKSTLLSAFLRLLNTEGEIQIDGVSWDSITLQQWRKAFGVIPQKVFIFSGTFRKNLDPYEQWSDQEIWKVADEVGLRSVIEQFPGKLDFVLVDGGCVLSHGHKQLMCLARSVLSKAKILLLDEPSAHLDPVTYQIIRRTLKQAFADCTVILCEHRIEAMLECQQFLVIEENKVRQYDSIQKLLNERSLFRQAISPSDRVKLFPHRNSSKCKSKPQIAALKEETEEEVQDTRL

additivity to CFTR correctors, HS-YFP quenching rate (F508del-CFTR functional rescue) (F508del-CFTR [3]; [6]): additivity in all conditions
F508del-CFTR band C rescue (F508del-CFTR [4]; 0.3 μM): Statistically significant band C rescue
F508del-CFTR band C rescue (F508del-CFTR [4]; 0.3 μM, listed as (R,Z)-3-((4-(2-Bromoacetamido)-3,5-dimethyl-1H-pyrrol-2-yl)-methylene)-2-oxo-N-): statistically significant band C rescue
additivity to CFTR correctors, bands C and B (F508del-CFTR [4]; [6]): additivity
F508del-CFTR band C rescue (F508del-CFTR [4]; 1.0 μM): Statistically significant band C rescue
F508del-CFTR band C rescue (F508del-CFTR [4]; 1.0 μM, listed as (R,Z)-3-((4-(2-Bromoacetamido)-3,5-dimethyl-1H-pyrrol-2-yl)-methylene)-2-oxo-N-): statistically significant band C rescue
band C rescue relative to VX-661 (F508del-CFTR [4]; at 0.3 and 1.0 μM): 50 % of VX-661
CFTR processing [C/(B+C)] (F508del-CFTR [4]): not significantly changed
CFTR processing [C/(B+C)] (F508del-CFTR [4]; [6]): without improved CFTR processing
additivity of rescue to correctors (summary statement) (F508del-CFTR [4]; low micromolar concentrations, VX-809, VX-445 and VX-661): additive to VX-809, VX-445 and VX-661
SMILES: Cc1[nH]c(/C=C2\C(=O)Nc3ccc(C(=O)N[C@H](C)c4ccccc4)cc32)c(C)c1NC(=O)CBr [9 g, (R,Z)-3-((4-(2-Bromoacetamido)-3,5-dimethyl-1H-pyrrol-2-yl)-methylene)-2-oxo-N-(1-phenylethyl)indoline-5-carboxamide]
cellular toxicity [1]: cellular toxicity
selectivity against GRK2 (GRK2 [2]): 1400 fold
IC50 (GRK5): 8.6 nM
additivity to CFTR correctors, HS-YFP quenching rate (F508del-CFTR functional rescue) (F508del-CFTR [3]): additive to all corrector treatments regarding F508del-CFTR functional rescue
F508del-CFTR function rescue (F508del-CFTR [3]; low micromolar concentrations): significant F508del-CFTR processing and function rescue
additivity to CFTR correctors, bands C and B (F508del-CFTR [4]): additive to all corrector treatments regarding bands C and B
F508del-CFTR processing rescue (F508del-CFTR [4]; low micromolar concentrations): significant F508del-CFTR processing and function rescue

SMILES: CC1=C(C(=O)Nc2ccc3[nH]ncc3c2)C(c2ccc(F)c(C(=O)NCc3ccccn3)c2)NC(=O)N1 (stereo not drawn) [CCG215022]
IC50 (GRK2 [5]): 150 ± 70 nM
effect on PKA (PKA): does not affect
IC50 (GRK1): 3900 ± 1000 nM
effect on GRK1 (GRK1; statement in words): does not affect
